Earlier results as cited in patent publication US4661473A, “Renin inhibitors containing peptide isosteres” (Merck & Co., Inc., priority 1984, dated 1987).

Test system: hog renin
Conditions: after the injection of hog renin into nephrectomized rats; Gross et al. 1971

Pepstatin
blood pressure in vivo: reduce blood pressure in vivo
